The values that follow come from patent US20230167073A1 (Teijin Pharma Limited, priority 2020, published 2023).

SMILES strings stand for the structures. Read-outs that look alike come from different tables or passages of the source.

In the assay the target is T1, Human TRPC6 (Homo sapiens, UniProt Q9Y210).
T1 construct: expressed in transfected cells
T1 sequence (Q9Y210 1-931): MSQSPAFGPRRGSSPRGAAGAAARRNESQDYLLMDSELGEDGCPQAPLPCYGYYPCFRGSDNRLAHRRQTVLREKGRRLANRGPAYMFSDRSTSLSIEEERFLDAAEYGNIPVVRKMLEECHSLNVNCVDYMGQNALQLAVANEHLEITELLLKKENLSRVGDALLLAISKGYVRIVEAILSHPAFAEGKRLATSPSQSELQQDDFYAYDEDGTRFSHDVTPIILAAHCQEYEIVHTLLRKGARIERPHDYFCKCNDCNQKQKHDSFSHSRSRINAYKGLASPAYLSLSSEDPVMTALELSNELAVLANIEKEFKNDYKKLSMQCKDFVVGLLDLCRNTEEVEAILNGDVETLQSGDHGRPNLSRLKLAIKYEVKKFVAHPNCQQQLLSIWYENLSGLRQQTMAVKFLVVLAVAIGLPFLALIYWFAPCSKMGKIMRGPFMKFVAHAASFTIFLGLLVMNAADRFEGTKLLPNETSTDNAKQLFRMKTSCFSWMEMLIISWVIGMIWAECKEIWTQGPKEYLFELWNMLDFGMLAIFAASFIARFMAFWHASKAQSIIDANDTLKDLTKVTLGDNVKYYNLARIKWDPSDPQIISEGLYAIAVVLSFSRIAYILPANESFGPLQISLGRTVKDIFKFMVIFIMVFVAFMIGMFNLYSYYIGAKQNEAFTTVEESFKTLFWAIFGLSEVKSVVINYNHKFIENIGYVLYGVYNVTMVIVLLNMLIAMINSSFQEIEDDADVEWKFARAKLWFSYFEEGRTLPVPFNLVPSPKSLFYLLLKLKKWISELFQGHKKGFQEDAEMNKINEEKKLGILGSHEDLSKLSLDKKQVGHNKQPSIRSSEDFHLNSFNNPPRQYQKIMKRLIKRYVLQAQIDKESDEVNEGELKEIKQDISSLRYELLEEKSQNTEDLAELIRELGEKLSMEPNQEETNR
In words: Evaluation of TRPC6 channel inhibitory activity (1), FLIPR Calcium 5 Assay Kit, OAG stimulation (Compound Nos. 1-1293). The format is cell-based. Summed up:
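Cells stably expressing human TRPC6, plated 24 h before, were loaded 30 min with Calcium 5 dye plus probenecid in HEPES-HBSS. Compound was added 20 min before OAG (30 μM final) and fluorescence tracked on FLIPR. Inhibition normalised to no-compound and no-compound/no-OAG wells; pIC50 from four-parameter fit, reported as +/++/+++ categories.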

The mark [1] stands for this setting: Human TRPC6 stably-expressing cells, OAG 30 μM, FLIPR Calcium 5 Assay Kit, read-out: Inhibitory activity (pIC50 class) (converted).

As to `N#Cc1ccc(-c2ncc(CN)cn2)c(Oc2ccc(N3CCCC3)nc2)c1` [compound 751, 4-[5-(aminomethyl)pyrimidin-2-yl]-3-(6-pyrrolidin-1-ylpyridin-3-yl)oxybenzonitrile], under setting [1], the IC50 is greater than 1000 nM.

Take `N#Cc1ccc(-c2ncc(CCN)cn2)c(Oc2ccc(N3C4CCC3CC4)nc2)c1` [compound 752, 4-[5-(2-aminoethyl)pyrimidin-2-yl]-3-[6-(7-azabicyclo[2.2.1]heptan-7-yl)pyridin-3-yl]oxybenzonitrile]: the IC50 was in the range of 10 to 1000 nM. On to `N#Cc1ccc(-c2ncc(CN)cn2)c(Oc2ccc(N3C4CCC3CC4)nc2)c1` [compound 753, 4-[5-(aminomethyl)pyrimidin-2-yl]-3-[6-(7-azabicyclo[2.2.1]heptan-7-yl)pyridin-3-yl]oxybenzonitrile], for which the IC50 under setting [1] was greater than 1000 nM.

Regarding `CCN(CC)c1cc(Oc2cc(C#N)ccc2-c2ccc(CCN)cn2)n(C)n1` [compound 754, 4-[5-(2-aminoethyl)pyridin-2-yl]-3-[5-(diethylamino)-2-methylpyrazol-3-yl]oxybenzonitrile], the IC50 under setting [1] is less than 10 nM. Consider `Cn1nc(N2CCCC2=O)cc1Oc1cc(C#N)ccc1-c1ccc(CCN)cn1` [compound 755, 4-[5-(2-aminoethyl)pyridin-2-yl]-3-[2-methyl-5-(2-oxopyrrolidin-1-yl)pyrazol-3-yl]oxybenzonitrile], for which the IC50 under setting [1] was 10 to 1000 nM. For the compound `Cn1nc(C2CC2)cc1Oc1cc(C#N)ccc1-c1cc(C(=O)N2CCC[C@H](N)C2)cn2ccnc12` [compound 756, 4-[6-[(3S)-3-aminopiperidine-1-carbonyl]imidazo[1,2-a]pyridin-8-yl]-3-(5-cyclopropyl-2-methylpyrazol-3-yl)oxybenzonitrile], the IC50 under setting [1] was greater than 1000 nM. `Cn1nc(C2CC2)cc1Oc1cc(C#N)ccc1-c1cc(C(=O)N2CCC[C@@H](N)C2)cn2ccnc12` [compound 757, 4-[6-[(3R)-3-aminopiperidine-1-carbonyl]imidazo[1,2-a]pyridin-8-yl]-3-(5-cyclopropyl-2-methylpyrazol-3-yl)oxybenzonitrile]: the IC50 under setting [1] is greater than 1000 nM.

Consider `CC(C)CN(C)c1cc(Oc2cc(C#N)ccc2-c2ncc(CCN)cn2)n(C)n1` [compound 758, 4-[5-(2-aminoethyl)pyrimidin-2-yl]-3-[2-methyl-5-[methyl(2-methylpropyl)amino]pyrazol-3-yl]oxybenzonitrile], for which the IC50 under setting [1] is less than 10 nM. With `CCCN(CCC)c1cc(Oc2cc(C#N)ccc2-c2ncc(CCN)cn2)n(C)n1` [compound 759, 4-[5-(2-aminoethyl)pyrimidin-2-yl]-3-[5-(dipropylamino)-2-methylpyrazol-3-yl]oxybenzonitrile], the IC50 under setting [1] was less than 10 nM. On the same count and under the same terms, for `COCCN(C)c1cc(Oc2cc(C#N)ccc2-c2ncc(CCN)cn2)n(C)n1` [compound 760, 4-[5-(2-aminoethyl)pyrimidin-2-yl]-3-[5-[2-methoxyethyl(methyl)amino]-2-methylpyrazol-3-yl]oxybenzonitrile] the value was less than 10 nM. `Cn1nc(-c2ccccn2)cc1Oc1cc(C#N)ccc1-c1nc(Cl)c2c(n1)CCNC2` [compound 761]: the IC50 under setting [1] was greater than 1000 nM. In the case of `CN(C)c1nc(-c2ccc(C#N)cc2Oc2cc(-c3ccccn3)nn2C)nc2c1CNCC2` [compound 762, 4-[4-(dimethylamino)-5,6,7,8-tetrahydropyrido[4,3-d]pyrimidin-2-yl]-3-(2-methyl-5-pyridin-2-ylpyrazol-3-yl)oxybenzonitrile], the IC50 under setting [1] was greater than 1000 nM. For `Cn1nc(C2CC2)cc1Oc1cc(C#N)ccc1-c1nnc2n1CCNC2` [compound 763, 3-(5-cyclopropyl-2-methylpyrazol-3-yl)oxy-4(5,6,7,8-tetrahydro-[1,2,4]triazolo[4,3-a]pyrazin-3-yl)benzonitrile], the IC50 under setting [1] was greater than 1000 nM. As to `CC(C)Nc1cc(Oc2cc(C#N)ccc2-c2ncc(CN)cn2)cnn1` [compound 764, 4-[5-(aminomethyl)pyrimidin-2-yl]-3-[6-(propan-2-ylamino)pyridazin-4-yl]oxybenzonitrile], the IC50 under setting [1] is 10 to 1000 nM. Same read-out and setting: next, `CC(C)CNc1cc(Oc2cc(C#N)ccc2-c2ncc(CN)cn2)cnn1` [compound 765, 4-[5-(aminomethyl)pyrimidin-2-yl]-3-[6-(2-methylpropylamino)pyridazin-4-yl]oxybenzonitrile]: less than 10 nM; `N#Cc1ccc(-c2ncc(CN)cn2)c(Oc2cnnc(NC3COC3)c2)c1` [compound 766, 4-[5-(aminomethyl)pyrimidin-2-yl]-3-[6-(oxetan-3-ylamino)pyridazin-4-yl]oxybenzonitrile]: greater than 1000 nM. As to `N#Cc1ccc(-c2ncc(CCN)cn2)c(Oc2nnc(N3C4CCC3CC4)s2)c1` [compound 767, 4-[5-(2-aminoethyl)pyrimidin-2-yl]-3-[[5-(7-azabicyclo[2.2.1]heptan-7-yl)-1,3,4-thiadiazol-2-yl]oxy]benzonitrile], the IC50 was less than 10 nM. `CC(C)C(N)c1cnc(-c2ccc(C#N)cc2Oc2cc(-c3ccccn3)nn2C)nc1` (stereo not drawn) [compound 768, 4-[5-(1-amino-2-methylpropyl)pyrimidin-2-yl]-3-(2-methyl-5-pyridin-2-ylpyrazol-3-yl)oxybenzonitrile]: under setting [1], the IC50 is less than 10 nM. With `CN(CC1CC1)c1cc(Oc2cc(C#N)ccc2-c2ncc(CCN)cn2)n(C)n1` [compound 769, 4-[5-(2-aminoethyl)pyrimidin-2-yl]-3-[5-[cyclopropylmethyl(methyl)amino]-2-methylpyrazol-3-yl]oxybenzonitrile], the IC50 under setting [1] was less than 10 nM. Same read-out and setting: next, `CCCN(C)c1cc(Oc2cc(C#N)ccc2-c2ncc(CCN)cn2)n(C)n1` [compound 770, 4-[5-(2-aminoethyl)pyrimidin-2-yl]-3-[2-methyl-5-[methyl(propyl)amino]pyrazol-3-yl]oxybenzonitrile]: less than 10 nM.

With `Cn1nc(N2CCOCC2)cc1Oc1cc(C#N)ccc1-c1ncc(CCN)cn1` [compound 771, 4-[5-(2-aminoethyl)pyrimidin-2-yl]-3-(2-methyl-5-morpholin-4-ylpyrazol-3-yl)oxybenzonitrile], the IC50 under setting [1] is 10 to 1000 nM.

Regarding `Cn1nc(N2CCOCC2)cc1Oc1cc(C#N)ccc1-c1ncc(CN)cn1` [compound 772, 4-[5-(aminomethyl)pyrimidin-2-yl]-3-(2-methyl-5-morpholin-4-ylpyrazol-3-yl)oxybenzonitrile], the IC50 under setting [1] was less than 10 nM. Turning to `Cn1nc(N2CCOCC2)cc1Oc1cc(C#N)ccc1-c1ccc(CN)cn1` [compound 773, 4-[5-(aminomethyl)pyridin-2-yl]-3-(2-methyl-5-morpholin-4-ylpyrazol-3-yl)oxybenzonitrile], the IC50 under setting [1] is less than 10 nM. Still for that read-out and setting: for `CCN(C)c1cc(Oc2cc(C#N)ccc2-c2ncc(CCN)cn2)n(C)n1` [compound 774, 4-[5-(2-aminoethyl)pyrimidin-2-yl]-3-[5-[ethyl(methyl)amino]-2-methylpyrazol-3-yl]oxybenzonitrile] the value was less than 10 nM; for `CC(C)N(C)c1cc(Oc2cc(C#N)ccc2-c2ncc(CCN)cn2)n(C)n1` [compound 775, 4-[5-(2-aminoethyl)pyrimidin-2-yl]-3-[2-methyl-5-[methyl(propan-2-yl)amino]pyrazol-3-yl]oxybenzonitrile], less than 10 nM; for `Cn1nc(C2CC2)cc1Oc1cc(C#N)ccc1-n1cc2c(n1)CCNC2` [compound 776, 3-(5-cyclopropyl-2-methylpyrazol-3-yl)oxy-4-(4,5,6,7-tetrahydropyrazolo[4,3-c]pyridin-2-yl)benzonitrile], greater than 1000 nM. As to `Cn1nc(C2CC2)cc1Oc1cc(C#N)ccc1-n1ncc2c1CCNC2` [compound 777, 3-(5-cyclopropyl-2-methylpyrazol-3-yl)oxy-4-(4,5,6,7-tetrahydropyrazolo[4,3-c]pyridin-1-yl)benzonitrile], under setting [1], the IC50 was greater than 1000 nM. As to `Cn1nc(C2CC2)cc1Oc1cc(C#N)ccc1-c1ccc(CN2CCNCC2=O)cn1` [compound 778, 3-(5-cyclopropyl-2-methylpyrazol-3-yl)oxy-4-[5-[(2-oxopiperazin-1-yl)methyl]pyridin-2-yl]benzonitrile], the IC50 under setting [1] is greater than 1000 nM. Turning to `Cn1nc(C2CC2)cc1Oc1cc(C#N)ccc1-c1ccc(CN2CCNCC2)cn1` [compound 779, 3-(5-cyclopropyl-2-methylpyrazol-3-yl)oxy-4-[5-(piperazin-1-ylmethyl)pyridin-2-yl]benzonitrile], the IC50 under setting [1] is greater than 1000 nM. `Cn1nc(C2CC2)cc1Oc1cc(C#N)ccc1-c1ccc(C(=O)N2CCNCC2)cn1` [compound 780, 3-(5-cyclopropyl-2-methylpyrazol-3-yl)oxy-4-[5-(piperazine-1-carbonyl)pyridin-2-yl]benzonitrile]: the IC50 under setting [1] is greater than 1000 nM.
